In general, EC50 refers to the concentration giving half of the maximal effect.

One assay deals with T1, human Y4 receptor (Homo sapiens, UniProt P50391).
T1 construct: expressed in transfected cells
T1 sequence (P50391 whole entry): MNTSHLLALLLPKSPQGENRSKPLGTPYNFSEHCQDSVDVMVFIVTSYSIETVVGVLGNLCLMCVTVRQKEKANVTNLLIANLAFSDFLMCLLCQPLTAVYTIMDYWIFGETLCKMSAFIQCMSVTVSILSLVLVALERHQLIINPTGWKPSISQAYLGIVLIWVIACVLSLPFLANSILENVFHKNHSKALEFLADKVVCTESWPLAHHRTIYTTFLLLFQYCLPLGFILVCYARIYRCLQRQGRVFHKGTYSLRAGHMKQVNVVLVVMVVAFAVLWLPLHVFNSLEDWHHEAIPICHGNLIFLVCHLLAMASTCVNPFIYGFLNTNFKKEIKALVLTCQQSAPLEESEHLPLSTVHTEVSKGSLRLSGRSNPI
As to the kind of experiment: NPY4 cAMP HTRF Agonist Assay (inhibitory cAMP assay, Gi activation by Y4 agonism). The following applies: TABLE 2, R2 is Phenyl-CN; read-out: hY4 CAMP EC50. Format: cell-based. The gist of the method: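 Y4 agonism read as lowered forskolin-stimulated cAMP (HTRF, 1 h detection at room temperature). Stable human Y4 CHO clone, 5000 cells/well, incubated 30 min at room temperature with compounds plus forskolin and IBMX in PBS.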
(TR-FRET usually uses a lanthanide donor and a delayed reading to cut background.)
For `N#Cc1ccc(N2CCC[C@H](N[C@@H]3CCCC[C@H]3Nc3cc(-n4ccc(C(F)(F)F)n4)ccn3)C2)cc1` [Example 206], the EC50 came to 0.44 µM.

Still in this assay, the particulars now being: TABLE 3, R2 is Phenyl-NO2; read-out: hY4 CAMP EC50.
Take `NC(=O)c1cccc(-c2ccnc(N[C@@H]3CCCC[C@H]3N[C@H]3C[C@@H]4C[C@H]3N(c3ccc([N+](=O)[O-])cc3)C4)c2)c1` [Example 294]: the EC50 came out at 0.041 µM.

Still in this assay, the particulars now being: TABLE 5, R2 is Pyridinyl-CF3; read-out: hY4 CAMP EC50.
As for `COc1ccc(-c2cnc(N[C@@H]3CCCC[C@H]3N[C@H]3CCCN(c4ccc(C(F)(F)F)nc4)C3)o2)cc1C#N` [Example 335], the EC50 worked out at 1.6 µM.
On the same count and under the same terms, under `FC(F)(F)Oc1ccc(-c2cnc(N[C@@H]3CCCC[C@H]3N[C@H]3C[C@@H]4C[C@H]3N(c3ccc(C(F)(F)F)cn3)C4)o2)cc1` [Example 338] stands 0.226 µM.

The same assay, now with this note: human Y4 receptor, cAMP; read-out: hY4 CAMP EC50.
Turning to `C[C@]1(N[C@@H]2CCCC[C@H]2Nc2ncc(-c3cccc(C(N)=O)c3)o2)CCCN(c2cnc(C(F)(F)F)cn2)C1` [Example 472], the EC50 is 0.009 µM.
`Cn1cnc(-c2ccc(N3CCC[C@H](N[C@@H]4CCCC[C@H]4Nc4cc(-c5ccc(F)c(F)c5)ccn4)C3)cc2)n1` [Example 457]: the EC50 is 0.026 µM.
On the same count and under the same terms, under `NC(=O)c1cccc(-c2ccnc(N[C@@H]3CCCC[C@H]3N[C@H]3C[C@@H]4C[C@H]3N(c3cnc(C(F)(F)F)cn3)C4)c2)c1` [Example 471] stands 0.329 µM; under `NC(=O)c1cccc(-c2cnc(N[C@@H]3CCCC[C@H]3N[C@H]3CCCN(c4ccc(-n5cncn5)cc4)C3)o2)c1` [Example 500], 0.101 µM; under `NC(=O)c1cccc(-c2ccnc(N[C@@H]3CCCC[C@H]3N[C@H]3CCCN(c4ccc(OC(F)(F)F)cc4)C3)c2)c1` [Example 462], 0.008 µM.
As for `FC(F)(F)Oc1cccc(-c2cnc(N[C@@H]3CCCC[C@H]3N[C@H]3CCCN(c4cnc(C(F)(F)F)nc4)C3)o2)c1` [Example 404], the EC50 came to 0.954 µM.

Still in this assay, the particulars now being: human Y4 stable CHO clonal cells, forskolin + IBMX; read-out: NPY4 cAMP HTRF Agonist Assay EC50.
As to `COc1ccc(-c2cnc(N[C@@H]3CCCC[C@H]3N[C@H]3CCCN(c4ccc([N+](=O)[O-])cc4)C3)o2)c(F)c1` [Example 21, (1R,2R)—N1-(5-(2-fluoro-4-methoxyphenyl)oxazol-2-yl)-N2-((S)-1-(4-nitrophenyl)piperidin-3-yl)cyclohexane-1,2-diamine], the EC50 came out at 0.011 µM.
Same read-out and setting: for `N#Cc1ccc(N2CCC[C@H](N[C@@H]3CCCC[C@H]3Nc3cc(-c4ccc(F)cc4)ccn3)C2)cc1` [Example 44, 4-((S)-3-((1R,2R)-2-(4-(4-Fluorophenyl)pyridin-2-ylamino)cyclohexylamino)piperidin-1-yl)benzonitrile tris-trifluoroacetate] the value was 0.05 µM.
Still for that read-out and setting: for `N#Cc1ccc(N2CCC[C@H](N[C@@H]3CCCC[C@H]3Nc3cc(-c4ccc(Cl)cc4)ccn3)C2)cc1` [Example 46, 4-((S)-3-((1R,2R)-2-(4-(4-Chlorophenyl)pyridin-2-ylamino)cyclohexylamino)piperidin-1-yl)benzonitrile tris-trifluoroacetate] the value was 0.208 µM; for `Fc1cc(N2CCC[C@H](N[C@@H]3CCCC[C@H]3Nc3ncc(-c4ccc(OC(F)(F)F)cc4)o3)C2)ccc1C(F)(F)F` [Example 73, (1R,2R)—N1-((S)-1-(3-Fluoro-4-(trifluoromethyl)phenyl)piperidin-3-yl)-N2-(5-(4-(trifluoromethoxy)phenyl)oxazol-2-yl)cyclohexane-1,2-diamine bis-trifluoroacetate], 0.083 µM.

Staying with this assay, now noted: second TABLE 1, R2 is Phenyl-CF3; read-out: hY4 CAMP EC50.
With `OCc1cccc(-c2ccnc(N[C@@H]3CCCC[C@H]3N[C@H]3CCCN(c4ccc(C(F)(F)F)cc4)C3)c2)c1` [Example 129], the EC50 is 0.041 µM.
Same read-out and setting: under `CC(C)(C)OC(=O)Nc1cccc(-c2cnc(N[C@@H]3CCCC[C@H]3N[C@H]3CCCN(c4ccc(C(F)(F)F)cc4)C3)o2)c1` [Example 169] stands 0.032 µM; under `FC(F)(F)c1ccc(N2CCC[C@H](N[C@@H]3CCCC[C@H]3Nc3cc(-c4cn[nH]c4)ccn3)C2)cc1` [Example 171], 0.142 µM.
On the same count and under the same terms, for `CC(C)NCc1cccc(-c2ccnc(N[C@@H]3CCCC[C@H]3N[C@H]3CCCN(c4ccc(C(F)(F)F)cc4)C3)c2)c1` [Example 143] the value was 0.107 µM.

Values taken from patent publication US8815909B2, “Diaminocyclohexane compounds and uses thereof” (Bristol-Myers Squibb Company, priority 2011, dated 2014).
